Source: US20090271164A1, “PREDICTING LONG-TERM EFFICACY OF A COMPOUND IN THE TREATMENT OF PSORIASIS” (priority 2008, published 2009)
Values joined by “and” are separate entries in the source; they are usually repeats but may differ in a detail not shown here. Equal entries are not always repeated. Where two headings read alike, the source gives them in different places.

Legend:
[1] = system: patients with moderate-to-severe chronic plaque psoriasis; experiment: Study M04-716 (CHAMPION), 16-week Phase III active- and placebo-controlled trial, PASI 75 response; format: in vivo, human; conditions: for PASI 75 response rate at Week 16: observed, Week 16 relative to Baseline
Method: The primary efficacy endpoint was the proportion of subjects achieving at least a 75% reduction in the Psoriasis Area and Severity Index (PASI) score (i.e., ≧PASI 75 response) at Week 16 relative to Baseline (Week 0).
Study M04-716 was a 16-week multicenter, double-blind, and double-dummy study.
PASI scores were assessed prior to the first dose of study drug (Baseline) and at Weeks 1, 2, 4, 8, 12 and 16.
Dose escalation/titration was carried out according to the efficacy and safety criteria defined in the protocol.
In addition, the subjects were candidates for systemic therapy or phototherapy.
The ADA treatment group received 40 mg every-other-week (eow) injections from Week 1, following an 80-mg initial dose. […] Dose escalation was carried out according to the efficacy and safety criteria defined in the study protocol. All study patients received injections as well as oral tablets, regardless of treatment group assignment (double-dummy design) (FIG. 5). Patient outcome was measured using a PASI 75 response: a 75% reduction (improvement) in PASI score at Week 16 compared with the baseline score.

[2] = system: patients with moderate-to-severe chronic plaque psoriasis; experiment: Population PK/PD (exposure-efficacy) modeling with NONMEM and clinical trial simulation of long-term MTX treatment; design: species or system human
From the text: The PK/PD model was built using a non-linear mixed-effects population modeling (NONMEM) approach with NONMEM software (double precision, Version VI) and a NMTRAN pre-processor. Models were compiled using the Intel Visual Fortran compiler (Version 9) on a dual processor workstation (DELL Precision 530) under the Windows 2000 (Service pack 4) operating system.
All 110 MTX-treated subjects in Study M04-716 were included in the population PK/PD analysis.
All the observed PASI scores over the 16-week period in MTX-treated subjects in Study M04-716 were used.
The amount in the central compartment was scaled by the apparent volume of distribution (V/F).
All subjects were assumed to have the typical PK parameter values (i.e., intersubject and intrasubject variabilities were set to zero).
Several PD models were examined. The first model is an indirect response model with an inhibitory effect (Imax and IC50) of Ce (concentration at an effect compartment) on Kin. Kin is the ‘synthesis rate’ into a compartment where PASI scores reside in. The 2nd model examined was similar to the final PD model (see below), except that the rate into the 3rd compartment is Kin·(Emax/(1+EC50/Cp)), rather than Kin·Cp.
The final PD model is a two-step indirect model (as shown below). […] In this model, Compartments 3 and 4 were added as delay/modulator compartments for triggering the observed PASI response.
Kin and Kout are the rate constants into and out of Compartment 3. […] Kout was set equal to Kin. K40 is the rate constant out of Compartment 4, and it controls the persistence of PASI response. PASI is the predicted PASI score, which equals to the baseline PASI score divided by a factor great than one, and the parameter ‘GAM’ influences the steepness of the functional relationship.
For the PD modeling, exponential error models were used to describe the inter-individual errors on the PD parameters Kin and K40.
The evaluation criteria used to select an appropriate PK/PD model are described below: • 1. […] The OFV is equal to −2 times the maximum logarithm of the likelihood of the data (−2LL). Non-hierarchical models are compared based on the AKAIKE criterion. • 2. The observed and predicted PASI scores from a preferred model were more randomly distributed across the line of unity (a straight line with zero intercept and a slope of one) than those from alternative model(s). • 3.
The first-order conditional estimation (FOCE) with INTERACTION method was employed within NONMEM, and a diagonal structure of the n matrix was assumed.
The final population PK/PD model was validated using a bootstrap method (random resampling with replacement). […]

[3] = cited from earlier work
[4] = two-step indirect response model, Run 18
[5] = fixed in the PK model, from the literature

| Compound | PASI 75 response rate at Week 16 [1] | simulated PASI 75 response rate at Week 52 greater than that at Week 16 ([2]; difference Week 52 vs Week 16) | K40 = THETA (2), estimate, final PD model [2, 4] | Kin = THETA (1), estimate, final PD model [2, 4] | calculated Tmax ([2]; with CL/F = 3 L/day/kg, V/F = 0.6 L/kg, Ka = 10 day^−1) | V/F (apparent volume of distribution), values in the literature ([3]; RA) | CL/F (apparent clearance), value used in NONMEM [3, 5] | Ka (first-order absorption rate constant), value used in NONMEM [3, 5] | V/F (apparent volume of distribution), value used in NONMEM [3, 5] | half-life ([3]; in vivo) | Tmax, values in the literature ([3]; leukemic pediatric patients) | Vss (volume of distribution at steady state), values in the literature ([3]; patient population unspecified) | CL/F (apparent clearance), values in the literature ([3]; patients with psoriasis) | Tmax, values in the literature ([3]; patients with psoriasis) | CL/F (apparent clearance), values in the literature ([3]; patients with rheumatoid arthritis (RA)) | PASI75 Response Rate (90% CI) Actual (NRI) ([1]; Week 1) | PASI75 Response Rate (90% CI) Actual (NRI) ([1]; Week 2) | PASI75 Response Rate (90% CI) Actual (NRI) ([1]; Week 4) | PASI75 Response Rate (90% CI) Actual (NRI) ([1]; Week 8) | PASI75 Response Rate (90% CI) Actual (NRI) ([1]; Week 16) |
| --- | --- | --- | --- | --- | --- | --- | --- | --- | --- | --- | --- | --- | --- | --- | --- | --- | --- | --- | --- | --- |
| adalimumab | 79.6% |  |  |  |  |  |  |  |  |  |  |  |  |  |  |  |  |  |  |  |
| CN(Cc1cnc2nc(N)nc(N)c2n1)c1ccc(C(=O)N[C@@H](CCC(=O)O)C(=O)O)cc1 [MTX, methotrexate] | 35.5% | approximately 12% | 0.0203 day⁻¹ | 3.83 day⁻¹ | Tmax would be 3.3 hrs, | 0.55 L/kg in RA.^2 | 2.1 mL/min/kg | 10 day⁻¹ | 0.6 L/kg | 2 to 3 h | Tmax = 0.67-4 hrs in leukemic pediatric patients.^3 | 0.4-0.8 L/kg (Vss).^3 | 12.4 L/h and 10.8 L/h and 11.5 L/h | Tmax = 2 hrs in patients with psoriasis. | 2.1 mL/min/kg in patients with rheumatoid | 0.0 (0.1, 3.2) | 0.0 (0.1, 3.2) | 2.7 (0.8, 7.2) | 9.1 (5.2, 15.2) | 35.5 (28.0, 43.7) |
